Source: patent US20150105252A1, “SUBSTITUTED PYRAZOLES AS HERBICIDES” (E I DU PONT DE NEMOURS AND COMPANY, priority 2013, published 2015)

Experiments:
barnyardgrass [1] = test: Test A preemergence; assay type: in vivo, Echinochloa crus-galli; details: Preemergence, 1000 g ai/ha; 0 to 100 scale, 0 no effect, 100 complete control
Source text: (§1) Seeds of plant species selected from barnyardgrass (Echinochloa crus-galli), kochia (Kochia scoparia), common ragweed (Ambrosia elation), Italian ryegrass (Lolium multiflorum), crabgrass, large (large crabgrass, Digitaria sanguinalis), foxtail, giant (giant foxtail, Setaria faberii), morningglory (Ipomoea spp.), pigweed (redroot pigweed, Amaranthus retroflexus), velvetleaf (Abutilon theophrasti), wheat (Triticum aestivum), and corn (Zea mays) were planted into a blend of loam soil and sand and treated preemergence with a directed soil spray using test chemicals formulated in a non-phytotoxic solvent mixture which included a surfactant.
(§2) At the same time, plants selected from these crop and weed species and also blackgrass (Alopecurus myosuroides), and galium (catchweed bedstraw, Galium aparine) were planted in pots containing the same blend of loam soil and sand and treated with postemergence applications of test chemicals formulated in the same manner. Plants ranged in height from 2 to 10 cm and were in the one- to two-leaf stage for the postemergence treatment. Treated plants and untreated controls were maintained in a greenhouse for approximately 10 days, after which time all treated plants were compared to untreated controls and visually evaluated for injury. Plant response ratings, summarized in Table A, are based on a 0 to 100 scale where 0 is no effect and 100 is complete control. A dash (-) response means no test result.

barnyardgrass [2] = test: Test A postemergence; assay type: in vivo, Echinochloa crus-galli; details: Postemergence, 1000 g ai/ha; visual rating after approx. 10 days, 0 to 100 scale (0 no effect, 100 complete control)
Outline: (§3)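 Scoring was visual, on a scale where 100 means complete control and 0 means no effect, comparing treated with untreated plants around 10 days post-application. Compounds in surfactant-containing non-phytotoxic solvent were sprayed onto soil preemergence or onto one- to two-leaf seedlings (2–10 cm) postemergence.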

foxtail, giant [3] = test: Test A preemergence; assay type: in vivo, Setaria faberii; details: Preemergence, 1000 g ai/ha; 0 to 100 scale, 0 no effect, 100 complete control
Source text: as §1, §2

velvetleaf [4] = test: Test A preemergence; assay type: in vivo, Abutilon theophrasti; details: Preemergence, 1000 g ai/ha; 0 to 100 scale, 0 no effect, 100 complete control
Outline: as §3

morningglory [5] = test: Test A postemergence; assay type: in vivo, Ipomoea spp.; details: Postemergence, 1000 g ai/ha; visual rating after approx. 10 days, 0 to 100 scale (0 no effect, 100 complete control)
Source text: as §1, §2

pigweed [6] = test: Test A preemergence; assay type: in vivo, Amaranthus retroflexus; details: Preemergence, 1000 g ai/ha; 0 to 100 scale, 0 no effect, 100 complete control
Outline: as §3

pigweed [7] = test: Test A postemergence; assay type: in vivo, Amaranthus retroflexus; details: Postemergence, 1000 g ai/ha; visual rating after approx. 10 days, 0 to 100 scale (0 no effect, 100 complete control)
Source text: as §1, §2

crabgrass, large [8] = test: Test A postemergence; assay type: in vivo, Digitaria sanguinalis; details: Postemergence, 1000 g ai/ha; visual rating after approx. 10 days, 0 to 100 scale (0 no effect, 100 complete control)
Source text: as §1, §2

wheat [9] = test: Test A postemergence; assay type: in vivo, Triticum aestivum; details: Postemergence, 1000 g ai/ha; visual rating after approx. 10 days, 0 to 100 scale (0 no effect, 100 complete control)
Outline: as §3

corn [10] = test: Test A postemergence; assay type: in vivo, Zea mays; details: Postemergence, 1000 g ai/ha; visual rating after approx. 10 days, 0 to 100 scale (0 no effect, 100 complete control)
Outline: as §3

crabgrass, large [11] = test: Test A preemergence; assay type: in vivo, Digitaria sanguinalis; details: Preemergence, 1000 g ai/ha; 0 to 100 scale, 0 no effect, 100 complete control
Source text: as §1, §2

corn [12] = test: Test A preemergence; assay type: in vivo, Zea mays; details: Preemergence, 1000 g ai/ha; 0 to 100 scale, 0 no effect, 100 complete control
Source text: as §1, §2

morningglory [13] = test: Test A preemergence; assay type: in vivo, Ipomoea spp.; details: Preemergence, 1000 g ai/ha; 0 to 100 scale, 0 no effect, 100 complete control
Outline: as §3

foxtail, giant [14] = test: Test A postemergence; assay type: in vivo, Setaria faberii; details: Postemergence, 1000 g ai/ha; visual rating after approx. 10 days, 0 to 100 scale (0 no effect, 100 complete control)
Outline: as §3

velvetleaf [15] = test: Test A postemergence; assay type: in vivo, Abutilon theophrasti; details: Postemergence, 1000 g ai/ha; visual rating after approx. 10 days, 0 to 100 scale (0 no effect, 100 complete control)
Source text: as §1, §2

wheat [16] = test: Test A preemergence; assay type: in vivo, Triticum aestivum; details: Preemergence, 1000 g ai/ha; 0 to 100 scale, 0 no effect, 100 complete control
Source text: as §1, §2

Structure (SMILES) | Barnyardgrass plant response rating (barnyardgrass [1]) | Barnyardgrass plant response rating (barnyardgrass [2]) | Foxtail, Giant plant response rating (foxtail, giant [3]) | Velvetleaf plant response rating (velvetleaf [4]) | Morningglory plant response rating (morningglory [5]) | Pigweed plant response rating (pigweed [6]) | Pigweed plant response rating (pigweed [7]) | Crabgrass, Large plant response rating (crabgrass, large [8]) | Wheat plant response rating (wheat [9]) | Corn plant response rating (corn [10]) | Crabgrass, Large plant response rating (crabgrass, large [11]) | Corn plant response rating (corn [12]) | Morningglory plant response rating (morningglory [13]) | Foxtail, Giant plant response rating (foxtail, giant [14]) | Velvetleaf plant response rating (velvetleaf [15]) | Wheat plant response rating (wheat [16])
CCc1cc(C(=O)N(C)CC)nn1Cc1cccc(C(F)(F)F)c1 [Compound 42] | 0 | 20 | 30 | 0 | 60 | 10 | 60 | 50 | 0 | 30 | 40 | 0 | 30 | 30 | 40 | 0
O=C(NC1CC1)c1cc(C2CC2)n(Cc2cccc(OC(F)(F)F)c2)n1 [Compound 37] | 0 | 10 | 30 | 0 | 80 | 20 | 100 | 20 | 20 | 30 | 40 | 0 | 0 | 10 | 70 | 0
C#CCNC(=O)c1cc(CC)n(Cc2cccc(C(F)(F)F)c2)n1 [Compound 41] | 10 | 10 | 50 | 0 | 100 | 10 | 30 | 20 | 10 | 20 | 30 | 0 | 20 | 20 | 10 | 0
CCc1cc(C(=O)NC2CC2)nn1Cc1cccc(C(F)(F)F)c1 [Compound 15] | 90 | 80 | 100 | 100 | 100 | 90 | 80 | 90 | 50 | 70 | 100 | 20 | 90 | 90 | 100 | 20
CCCNC(=O)c1cc(C2CC2)n(Cc2cccc(OC(F)(F)F)c2)n1 [Compound 38] | 0 | 10 | 0 | 0 | 100 | 0 | 40 | 10 | 0 | 30 | 20 | 0 | 0 | 10 | 50 | 0
